Results taken from patent publication US12581252B2, “Substituted pyrrolo[3,4-b]pyridines as PI3K-α inhibitors” (Relay Therapeutics, Inc., priority 2020, dated 2026).

The compounds below were run against H1047R PIK3CA enzyme (Homo sapiens, UniProt P42336, H1047R) (assay: ADP-Glo Biochemical PIK3CA Kinase Assay).
Chain of H1047R PIK3CA enzyme (P42336 whole entry H1047R): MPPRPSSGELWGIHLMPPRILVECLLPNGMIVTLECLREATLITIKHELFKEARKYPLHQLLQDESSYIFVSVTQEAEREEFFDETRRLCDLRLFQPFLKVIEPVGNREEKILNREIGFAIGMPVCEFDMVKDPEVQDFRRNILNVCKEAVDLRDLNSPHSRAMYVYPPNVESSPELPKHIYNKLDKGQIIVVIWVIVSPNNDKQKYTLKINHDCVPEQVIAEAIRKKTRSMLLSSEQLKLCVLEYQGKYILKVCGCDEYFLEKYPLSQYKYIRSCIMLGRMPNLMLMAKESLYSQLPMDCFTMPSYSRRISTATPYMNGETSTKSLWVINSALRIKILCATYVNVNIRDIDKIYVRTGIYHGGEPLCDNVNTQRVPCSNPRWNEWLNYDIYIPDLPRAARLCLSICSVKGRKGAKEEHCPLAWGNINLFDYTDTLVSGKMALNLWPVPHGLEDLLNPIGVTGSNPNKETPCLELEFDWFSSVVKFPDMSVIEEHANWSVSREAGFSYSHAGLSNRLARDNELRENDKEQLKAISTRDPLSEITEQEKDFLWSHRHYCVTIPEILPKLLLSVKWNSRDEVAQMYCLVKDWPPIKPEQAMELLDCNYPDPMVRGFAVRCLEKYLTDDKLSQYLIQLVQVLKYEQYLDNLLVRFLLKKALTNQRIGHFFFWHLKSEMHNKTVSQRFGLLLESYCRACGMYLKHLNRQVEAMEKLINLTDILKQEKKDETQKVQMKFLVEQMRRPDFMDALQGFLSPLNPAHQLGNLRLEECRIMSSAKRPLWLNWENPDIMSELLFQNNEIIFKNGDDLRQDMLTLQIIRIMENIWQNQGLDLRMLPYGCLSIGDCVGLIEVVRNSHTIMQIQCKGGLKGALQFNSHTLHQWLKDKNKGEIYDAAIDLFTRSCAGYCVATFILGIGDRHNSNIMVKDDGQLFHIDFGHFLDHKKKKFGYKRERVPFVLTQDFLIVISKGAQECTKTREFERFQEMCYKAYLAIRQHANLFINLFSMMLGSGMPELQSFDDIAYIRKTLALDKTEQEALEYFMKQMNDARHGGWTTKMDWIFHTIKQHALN
Chain of H1047R PIK3CA enzyme (P27986 whole entry partner): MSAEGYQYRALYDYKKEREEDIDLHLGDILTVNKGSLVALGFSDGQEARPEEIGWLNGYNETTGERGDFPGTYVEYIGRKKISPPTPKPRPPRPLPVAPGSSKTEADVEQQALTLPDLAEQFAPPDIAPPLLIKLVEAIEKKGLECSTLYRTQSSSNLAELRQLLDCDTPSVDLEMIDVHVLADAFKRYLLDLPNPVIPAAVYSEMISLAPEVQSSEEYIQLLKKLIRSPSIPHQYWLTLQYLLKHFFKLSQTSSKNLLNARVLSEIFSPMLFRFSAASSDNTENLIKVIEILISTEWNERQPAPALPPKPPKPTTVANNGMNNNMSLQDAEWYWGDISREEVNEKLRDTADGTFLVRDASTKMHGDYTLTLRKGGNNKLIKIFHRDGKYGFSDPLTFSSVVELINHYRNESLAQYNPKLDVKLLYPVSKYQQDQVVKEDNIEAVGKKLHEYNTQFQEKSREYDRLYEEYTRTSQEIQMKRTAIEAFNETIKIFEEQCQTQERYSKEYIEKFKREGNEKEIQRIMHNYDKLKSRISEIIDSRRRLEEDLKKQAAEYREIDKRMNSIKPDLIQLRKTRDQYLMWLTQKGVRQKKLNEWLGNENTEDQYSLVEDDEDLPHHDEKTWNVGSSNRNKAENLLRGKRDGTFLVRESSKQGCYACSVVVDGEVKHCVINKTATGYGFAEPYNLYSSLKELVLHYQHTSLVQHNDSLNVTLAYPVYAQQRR

| SMILES | IC50 |
| --- | --- |
| N#Cc1c(-c2cc(NC(=O)c3cc(F)cc(Cl)c3)c3c(c2)C(=O)N[C@@H]3c2cc(F)ccc2Cl)ccc2ncnn12 [Compound I-2064] | ≤ 100 nM |
| Nc1cc(C(=O)Nc2cccc3c2C(c2cc(F)ccc2Cl)NC3=O)cc(C(F)(F)F)c1 (centres unmarked) [Compound I-449] | 1000 to 10000 nM |
| Cc1ncc(-c2cc(NC(=O)c3cc(F)cc(C(F)(F)F)c3)c3c(n2)C(=O)NC3c2cc(F)ccc2Cl)cn1 (centres unmarked) [Compound I-584] | ≤ 100 nM |
| CNc1cc(NC(=O)N2C[C@@](O)(C(F)F)c3cc(F)ccc32)c2c(c1)C(=O)N[C@H]2c1cc(F)ccc1Cl (single isomer, unassigned) [Compound I-2680] | 10000 to 100000 nM |
| O=C1N[C@H](c2cc(F)ccc2Cl)c2c(NC(=O)N3C[C@](O)(C(F)(F)F)c4cc(F)ccc43)ccc(-n3nccn3)c21 (single isomer, unassigned) [Compound I-2526] | 1000 to 10000 nM |
| Cn1ccc(Nc2cc(NC(=O)c3cc(F)cc(C(F)(F)F)c3)c3c(c2)C(=O)N[C@@H]3c2cc(F)ccc2Cl)n1 [Compound I-1072] | 500 to 1000 nM |
| O=C1N[C@H](c2cc(F)ccc2Cl)c2c(NC(=O)N3C[C@@H](O)c4ccc(F)cc43)cccc21 (stereo in doubt) [Compound I-2173] | 1000 to 10000 nM |
| Cn1ccc2c(F)cc(C(=O)Nc3cc(Br)cc4c3C(c3cc(F)ccc3Cl)NC4=O)cc21 (centres unmarked) [Compound I-1005] | 1000 to 10000 nM |
| C[C@]1(O)C[C@@H](Nc2cc(NC(=O)c3cc(F)cc(C(F)(F)F)c3)c3c(n2)C(=O)NC3c2cc(F)ccc2Cl)C1 (single isomer, unassigned) [Compound I-329] | 100 to 500 nM |
| O=C1NC(c2cc(F)ccc2Cl)c2c1cccc2-n1ccc2ccccc2c1=O (centres unmarked) [Compound I-1590] | 10000 to 100000 nM |
| CC(O)c1cc(-c2ccc3ncnn3c2)cc2c1C(c1cc(F)ccc1Cl)NC2=O (centres unmarked) [Compound I-1907] | 10000 to 100000 nM |
| O=C(Nc1cc(-c2ccccc2S(=O)(=O)F)cc2c1C(c1cc(F)ccc1Cl)NC2=O)c1cc(F)cc(C(F)(F)F)c1 (centres unmarked) [Compound I-1264] | ≤ 100 nM |
| Cc1ncc(-c2cc(NC(=O)c3cc(F)cc(C(F)(F)F)c3)c3c(c2)C(=O)NC3c2cc(F)ccc2Cl)c(C)n1 (centres unmarked) [Compound I-1092] | 100 to 500 nM |
| CC(C)(C(=O)Nc1cc(Br)cc2c1C(c1cc(F)ccc1Cl)NC2=O)C(F)(F)F (centres unmarked) [Compound I-1620] | 10000 to 100000 nM |
| O=C1NC(c2cc(F)ccc2Cl)c2c(Nc3nn(CCO)c4ccccc34)cc(-c3ccc4ncnn4c3)cc21 (centres unmarked) [Compound I-1807] | 1000 to 10000 nM |
| COc1ccc(Oc2cc(NC(=O)c3cc(F)cc(C(F)(F)F)c3)c3c(c2)C(=O)NC3c2cc(F)ccc2Cl)nn1 (centres unmarked) [Compound I-1147] | ≤ 100 nM |
| COc1ccc(F)cc1C(=O)Nc1cc(Br)cc2c1C(c1cc(F)ccc1Cl)NC2=O (centres unmarked) [Compound I-796] | 1000 to 10000 nM |

| SMILES | IC50 |
| --- | --- |
| NCCc1cc(NC(=O)N2C[C@](O)(C(F)(F)F)c3cc(F)ccc32)c2c(c1)C(=O)N[C@H]2c1cc(F)ccc1Cl (single isomer, unassigned) [Compound I-2582] | 100 to 500 nM |
| Cc1ccccc1C1NC(=O)c2cc(CN)cc(NC(=O)c3csc4ccccc34)c21 (centres unmarked) [Compound I-88, N-(6-(Aminomethyl)-1-oxo-3-(o-tolyl)isoindolin-4-yl)benzo[b]thiophene-3-carboxamide] | ≤ 100 nM |
| N#CC[C@H](O)c1cc(NC(=O)c2cc(F)cc(C(F)(F)F)c2)c2c(c1)C(=O)N[C@H]2c1cc(F)ccc1Cl (single isomer, unassigned) [Compound I-1394] | ≤ 100 nM |
| N#Cc1cc(NC(=O)N2C[C@](O)(C(F)(F)F)c3ccccc32)c2c(c1)C(=O)N[C@H]2c1cc(F)ccc1Cl (single isomer, unassigned) [Compound I-2565] | 1000 to 10000 nM |
| CN1CCN(C(=O)Nc2cc(Br)cc3c2[C@@H](c2cc(F)ccc2Cl)NC3=O)CC1 (single isomer, unassigned) [Compound I-2245] | 10000 to 100000 nM |
| O=C(Nc1cccc2c1C(c1ccc(Br)cc1Cl)NC2=O)c1cc(F)cc(C(F)(F)F)c1 (centres unmarked) [Compound I-409] | 1000 to 10000 nM |
| O=C(Nc1ccc(F)cc1F)Nc1ccnc2c1C(c1ccccc1Cl)NC2=O (centres unmarked) [Compound I-245] | 1000 to 10000 nM |
| N#Cc1cnc2c(F)cc(-c3cc(NC(=O)c4cc(F)cc(C(F)(F)F)c4)c4c(c3)C(=O)NC4c3cc(F)ccc3Cl)cn12 (centres unmarked) [Compound I-1797] | ≤ 100 nM |
| O=C(CC1CCC1)Nc1cc(-c2ccc3ncnn3c2)cc2c1C(c1cc(F)ccc1Cl)NC2=O (centres unmarked) [Compound I-1777] | 10000 to 100000 nM |
| Cc1cn(-c2cc(NC(=O)N3C[C@@](O)(C(F)(F)F)c4cc(F)ccc43)c3c(c2)C(=O)N[C@H]3c2cc(F)ccc2Cl)cn1 (single isomer, unassigned) [Compound I-2638] | 1000 to 10000 nM |
| N#CCc1cc(NC(=O)N2C[C@@](O)(C(F)(F)F)c3cc(F)ccc32)c2c(c1)C(=O)N[C@@H]2c1cc(F)ccc1Cl (single isomer, unassigned) [Compound I-2626] | 500 to 1000 nM |
| CC(C)(C)C1CCCN1C(=O)Nc1cccc2c1C(c1cc(F)ccc1Cl)NC2=O (single isomer, unassigned) [Compound I-2432] | 500 to 1000 nM |
| Cc1ccccc1C1NC(=O)c2cccc(NC3(c4cc(F)cc(C(F)(F)F)c4)COC3)c21 (centres unmarked) [Compound I-492] | 1000 to 10000 nM |
| CP(C)(=O)c1cc(NC(=O)c2cc(F)cc(C(F)(F)F)c2)c2c(c1)C(=O)NC2c1cc(F)ccc1Cl (centres unmarked) [Compound I-395] | ≤ 100 nM |
| CN1CCN(C(=O)Nc2cc(Br)cc3c2[C@H](c2cc(F)ccc2Cl)NC3=O)CC1(C)C (single isomer, unassigned) [Compound I-2240] | 10000 to 100000 nM |
| O=C(Nc1cc(-c2cn3ncnc3cc2F)cc2c1[C@@H](c1cc(F)ccc1Cl)NC2=O)c1cc(F)cc(C(F)(F)F)c1 (stereo in doubt) [Compound I-1701] | 1000 to 10000 nM |
| Cc1ncc(-c2cc(NC(=O)c3cc(F)cc(C(F)(F)F)c3)c3c(c2)C(=O)NC3c2cc(F)ccc2Cl)c(N)n1 (centres unmarked) [Compound I-1122] | ≤ 100 nM |

Results, then the compound that gave them:

| IC50 | SMILES |
| --- | --- |
| ≤ 100 nM | CC(C)(O)c1cc(NC(=O)N2CCc3ccccc32)c2c(c1)C(=O)NC2c1cc(F)ccc1Cl (centres unmarked) [Compound I-308] |
| 100 to 500 nM | Cc1ccccc1C1NC(=O)c2nccc(NC(=O)N3CCc4ccccc43)c21 (centres unmarked) [Compound I-147, N-(7-oxo-5-(o-tolyl)-6,7-dihydro-5H-pyrrolo[3,4-b]pyridin-4-yl)indoline-1-carboxamide] |
| 1000 to 10000 nM | Cc1ccccc1C1NC(=O)c2cccc(NC(=O)c3nsc4ccc(-c5ccccc5)cc34)c21 (centres unmarked) [Compound I-378] |
| 10000 to 100000 nM | O=C1NC(c2cc(F)ccc2Cl)c2c(NC(=O)N3CC(C(F)(F)F)Nc4ccccc43)cccc21 (centres unmarked) [Compound I-2339] |
| 10000 to 100000 nM | O=C1N[C@H](c2cc(F)ccc2Cl)c2c(NC(=O)N3C[C@@](O)(C(F)F)c4ccccc43)cccc21 (single isomer, unassigned) [Compound I-2484] |
| ≤ 100 nM | O=C(Nc1cc(-c2cn3ncccc3n2)cc2c1C(c1cc(F)ccc1Cl)NC2=O)c1cc(F)cc(C(F)(F)F)c1 (centres unmarked) [Compound I-1306] |
| 10000 to 100000 nM | O=C(Nc1cccc2c1C(C1CCC1)NC2=O)c1cc(F)cc(C(F)(F)F)c1 (centres unmarked) [Compound I-1731] |
| 10000 to 100000 nM | CC1(C2NC(=O)c3cccc(NC(=O)c4cc(F)cc(C(F)(F)F)c4)c32)CCCCC1 (centres unmarked) [Compound I-1917] |
| 1000 to 10000 nM | COc1cccc(-c2cc(NC(=O)c3cc(F)cc(C(F)(F)F)c3)c3c(c2)C(=O)N[C@@H]3c2cc(F)ccc2Cl)n1 (stereo in doubt) [Compound I-1007] |
| 10000 to 100000 nM | O=C1NC(c2cc(F)ccc2Cl)c2c(NC(=O)N3CCC(O)C3)cc(-c3ccc4ncnn4c3)cc21 (centres unmarked) [Compound I-1718] |
| ≤ 100 nM | O=C(Nc1cc(-c2cn3c(F)cnc3cn2)cc2c1[C@H](c1cc(F)ccc1Cl)NC2=O)c1cc(F)cc(C(F)(F)F)c1 [Compound I-1878] |
| 10000 to 100000 nM | CN1CCC(C2NC(=O)c3cccc(NC(=O)c4cc(F)cc(C(F)(F)F)c4)c32)CC1 (centres unmarked) [Compound I-1815] |
| 1000 to 10000 nM | COc1ccc2scc(C(=O)Nc3cccc4c3C(c3ccccc3C)NC4=O)c2c1 (centres unmarked) [Compound I-42] |
| 500 to 1000 nM | N#CC1(n2cc(-c3cc(NC(=O)c4cc(F)cc(C(F)(F)F)c4)c4c(c3)C(=O)N[C@@H]4c3cc(F)ccc3Cl)cn2)CC1 [Compound I-1885] |
| 500 to 1000 nM | O=C1NC(c2cc(F)ccc2Cl)c2c(NC(=O)N3CCCC34CCCC4)cc(Br)cc21 (centres unmarked) [Compound I-2424] |
| ≤ 100 nM | N#C[C@H]1C[C@H](Oc2cc(NC(=O)c3cc(F)cc(C(F)(F)F)c3)c3c(c2)C(=O)N[C@H]3c2cc(F)ccc2Cl)C1 (stereo in doubt) [Compound I-1305] |
| 10000 to 100000 nM | Cc1ccccc1C1NC(=O)c2cccc(NC(=O)c3nn(C)c4ccccc34)c21 (centres unmarked) [Compound I-17] |
| 10000 to 100000 nM | Cn1cc(-c2ccc(C3NC(=O)c4cccc(NC(=O)c5cc(F)cc(C(F)(F)F)c5)c43)c(Cl)c2)cn1 (centres unmarked) [Compound I-425] |
| 1000 to 10000 nM | CC1(C)CC1C1NC(=O)c2cccc(NC(=O)c3cc(F)cc(C(F)(F)F)c3)c21 (centres unmarked) [Compound I-1766] |
| 10000 to 100000 nM | CNc1cc(C2NC(=O)c3cccc(NC(=O)c4cc(F)cc(C(F)(F)F)c4)c32)ccn1 (centres unmarked) [Compound I-874] |
| ≤ 100 nM | CC(C)(O)c1cnc2ccc(-c3cc(NC(=O)c4cc(F)cc(C(F)(F)F)c4)c4c(c3)C(=O)N[C@H]4c3cc(F)ccc3Cl)cc2c1 [Compound I-1604] |
| 500 to 1000 nM | Cc1ccccc1-n1[nH]c(=O)c2cccc(NC(=O)c3cc(F)cc(C(F)(F)F)c3)c21 [Compound I-178] |
| ≤ 100 nM | CSC(C)c1cc(NC(=O)c2cc(F)cc(C(F)(F)F)c2)c2c(c1)C(=O)NC2c1cc(F)ccc1Cl (racemic) [Compound I-1490] |
| ≤ 100 nM | O=C(O)COc1ncc(-c2cc(NC(=O)c3cc(F)cc(C(F)(F)F)c3)c3c(c2)C(=O)NC3c2cc(F)ccc2Cl)cn1 (centres unmarked) [Compound I-1390] |
| 100 to 500 nM | Cc1ccccc1C1NC(=O)c2nccc(NC(=O)c3cc(F)cc(C(F)(F)F)c3)c21 (centres unmarked) [Compound I-142] |
| 1000 to 10000 nM | Cc1ccccc1C1NC(=O)c2cccc(NC(=O)c3cc(F)cc(C(C)C)c3)c21 (centres unmarked) [Compound I-715] |
| ≤ 100 nM | O=C(Nc1cc(Br)cc2c1C(c1cccc(F)c1Cl)NC2=O)c1cc(F)cc(C(F)(F)F)c1 (centres unmarked) [Compound I-672] |
| ≤ 100 nM | CC1(Cc2cc(NC(=O)c3cc(F)cc(C(F)(F)F)c3)c3c(c2)C(=O)N[C@H]3c2cc(F)ccc2Cl)COC1 [Compound I-818] |
